Data reported in patent publication US10561703B2, “Method of modulating sex hormone levels using a sex hormone secretion modulator” (GEMVAX & KAEL CO., LTD., priority 2013, dated 2020).

System: Testosterone
Assay: Testosterone level in blood (serum CLIA) after repeated sc PEP-1
Assay type: in vivo, SD rats
Description: PEP-1 (peptide of SEQ ID NO: 1), lyophilized white powder, obtained according to the method mentioned in example 1 was dissolved in 0.9% of saline, considering the correction factor of PEP-1 (purity: 94.13%, content: 92.36%, correction factor: 1.15). 50 mg/mL stock solution was further diluted into 20 mg/mL, 2 mg/mL, and 1 mg/mL with 0.9% saline, and stored at 4° C. for a week until the use.
The purpose of this example is to confirm the change of sexual hormones in blood from SD rats with 7 days repeated daily administration of SEQ ID NO: 1 peptide, PEP-1. This experiment followed the Ethics Regulation of Animal Test by KAMSI Inc. (Korea Animal Medical Science Institute). In addition, this experiment, Non-GLP experiment, referred to the MFDS (Ministry of Food and Drug Safety) notification; Agent 2013-40 (5th April 2013), Principles of Good Laboratory Practice (1997).
SPF Rats (Crlj:CD(SD)) were purchased from ORIENTBio Inc. (Mokdong-ri, Buk-myeon, Gapyeong-gun, Gyeonggi-do, Republic of Korea). 75 male (6.5 weeks old and 190˜210 g) and 75 female (6.5 weeks old and 160˜180 g) rats were monitored for 4 days, and 64 of male and female rats (each) were selected for the experiment. Raising condition is as follows; 23±3° C. of temperature, […] of relative humidity, 10˜20 times/hr of number of air changes, 12 hours (8 a.m.˜8 p.m.) of lighting with 150˜300 Lux of intensity.
64 male and female […] (mentioned above) were divided into 8 groups. Administration regimen, for example, drugs, routes, dosages, and volumes were as follows:
The detailed administration regimen is as follows; once a day, twice a day and twice a week in each experimental group. Injection initiated at 10 a.m. every day, and each rat was injected at one minute intervals. Rats in Group 9, 10, 13 and 14 were injected twice a week. Administration of high dose test agent preceded that of low dose. The volume of injection was calculated using recently measured weight of rats, and it was 5 mL/kg. Subcutaneous injection was performed as follows; assistant tilted the back of rat upward, and experimenter sterilized the back of rat with 70% alcohol, followed by subcutaneous injection of test agent with 26 G syringe.
1.4 mL of blood sample (0.7 mL of serum) was collected after measurement of weight (Day 0). Next day (1 Day), 1.4 mL of blood sample (0.7 mL of serum) was collected twice after injection of test agent (4 hrs and 8 hrs after administration of test agent). For next 6 days (Day 2˜Day 7), 1.4 mL of blood was extracted once everyday (4 hours after injection of test agent). Dose and volume of test agent of each group followed the Table 3, and injection time zone was same every day. Blood was extracted from the jugular vein, and left at room temperature for 30 minutes. Serum was separated using centrifugation (10,000 rpm for 5 minutes), and stored at −70±5° C. in Deep freezer until the use. Blood extraction from each subject was done in the same time zone every day.
A CLIA (Chemi-Luminescence Immune Assay) Kit was used to analyze Testosterone, Estradiol E2, FSH (Follicle stimulating hormone), and LH (Luteinizing hormone). Analysis was completed within 48 hrs after blood extraction (Laboratory Medicine Department, Chung-Ang University Hospital), and detailed method is as follows; One-way ANOVA was used to verify the comparison between the vehicle and PEP-1, and between different doses of PEP-1. For further analysis, Duncan test was used as parametric test and Dunnett's test as non-parametric test. p<0.05 represents the statistical significance, and all statistical analysis was carried out with SPSS 10.1.
Testosterone was analyzed using the samples prepared from example 2. 15 μL of serum was used for analysis. Fundamentals of analysis is competitive immunoassay based on direct chemi-luminescent. As mentioned in example 2, CLIA (Chemi-luminescence immune assay) Kit was used for Testosterone analysis, following the manufacture's protocol. […]

In the case of “EARPALLTSRLRFIPK (listed as Homo sapiens) [PEP-1, hormone secretion modulator / GnRH analog]”, the “Testosterone level in blood” value (G11 Female 100 mg/kg sc 1/day x7, 6 days) was 1.01 ng/dL, the “Testosterone level in blood” value (G11 Female 100 mg/kg sc 1/day x7, 7 days) was 1.25 ng/dL and the “Testosterone level in blood” value (G11 Female 100 mg/kg sc 1/day x7, pre) was 1.79 ng/dL. The “Testosterone level in blood” value (G12 Male 100 mg/kg sc 1/day x7, 4 hr) was 0.08 ng/dL, the “Testosterone level in blood” value (G12 Male 100 mg/kg sc 1/day x7, 8 hr) was 0.01 ng/dL and the “Testosterone level in blood” value (G12 Male 100 mg/kg sc 1/day x7, 2 days) was 0.01 ng/dL. The “Testosterone level in blood” value (G12 Male 100 mg/kg sc 1/day x7, 3 days) was 0.05 ng/dL, the “Testosterone level in blood” value (G12 Male 100 mg/kg sc 1/day x7, 4 days) was 0.17 ng/dL and the “Testosterone level in blood” value (G12 Male 100 mg/kg sc 1/day x7, 5 days) was 0.11 ng/dL. For the same sequence, the “Testosterone level in blood” value (G12 Male 100 mg/kg sc 1/day x7, 6 days) was 0.12 ng/dL, the “Testosterone level in blood” value (G12 Male 100 mg/kg sc 1/day x7, 7 days) was 0.12 ng/dL and the “Testosterone level in blood” value (G12 Male 100 mg/kg sc 1/day x7, pre) was 0.18 ng/dL. For the same sequence, the “Testosterone level in blood” value (G13 Female 100 mg/kg sc 2/week x2 (days 1,7), 4 hr) was 7.48 ng/dL, the “Testosterone level in blood” value (G13 Female 100 mg/kg sc 2/week x2 (days 1,7), 8 hr) was 6.34 ng/dL and the “Testosterone level in blood” value (G13 Female 100 mg/kg sc 2/week x2 (days 1,7), 2 days) was 0.97 ng/dL. For the same sequence, the “Testosterone level in blood” value (G13 Female 100 mg/kg sc 2/week x2 (days 1,7), 3 days) was 1.65 ng/dL, the “Testosterone level in blood” value (G13 Female 100 mg/kg sc 2/week x2 (days 1,7), 4 days) was 1.25 ng/dL and the “Testosterone level in blood” value (G13 Female 100 mg/kg sc 2/week x2 (days 1,7), 5 days) was 1.3 ng/dL. For the same sequence, the “Testosterone level in blood” value (G13 Female 100 mg/kg sc 2/week x2 (days 1,7), 6 days) was 2.54 ng/dL, the “Testosterone level in blood” value (G13 Female 100 mg/kg sc 2/week x2 (days 1,7), 7 days) was 12.35 ng/dL and the “Testosterone level in blood” value (G13 Female 100 mg/kg sc 2/week x2 (days 1,7), pre) was 1.71 ng/dL. For the same sequence, the “Testosterone level in blood” value (G14 Male 100 mg/kg sc 2/week x2 (days 1,7), 4 hr) was 0.07 ng/dL, the “Testosterone level in blood” value (G14 Male 100 mg/kg sc 2/week x2 (days 1,7), 8 hr) was 0.01 ng/dL and the “Testosterone level in blood” value (G14 Male 100 mg/kg sc 2/week x2 (days 1,7), 2 days) was 0.01 ng/dL. For the same sequence, the “Testosterone level in blood” value (G14 Male 100 mg/kg sc 2/week x2 (days 1,7), 3 days) was 0.13 ng/dL, the “Testosterone level in blood” value (G14 Male 100 mg/kg sc 2/week x2 (days 1,7), 4 days) was 0.17 ng/dL and the “Testosterone level in blood” value (G14 Male 100 mg/kg sc 2/week x2 (days 1,7), 5 days) was 0.13 ng/dL. For the same sequence, the “Testosterone level in blood” value (G14 Male 100 mg/kg sc 2/week x2 (days 1,7), 6 days) was 0.14 ng/dL, the “Testosterone level in blood” value (G14 Male 100 mg/kg sc 2/week x2 (days 1,7), 7 days) was 0.15 ng/dL and the “Testosterone level in blood” value (G14 Male 100 mg/kg sc 2/week x2 (days 1,7), pre) was 0.13 ng/dL. For the same sequence, the “Testosterone level in blood” value (G15 Female 250 mg/kg sc 1/day x7, 4 hr) was 6.27 ng/dL, the “Testosterone level in blood” value (G15 Female 250 mg/kg sc 1/day x7, 8 hr) was 8.2 ng/dL and the “Testosterone level in blood” value (G15 Female 250 mg/kg sc 1/day x7, 2 days) was 3.77 ng/dL. The “Testosterone level in blood” value (G15 Female 250 mg/kg sc 1/day x7, 3 days) was 2.09 ng/dL, the “Testosterone level in blood” value (G15 Female 250 mg/kg sc 1/day x7, 4 days) was 0.8 ng/dL and the “Testosterone level in blood” value (G15 Female 250 mg/kg sc 1/day x7, 5 days) was 0.75 ng/dL. The “Testosterone level in blood” value (G15 Female 250 mg/kg sc 1/day x7, 6 days) was 1.27 ng/dL, the “Testosterone level in blood” value (G15 Female 250 mg/kg sc 1/day x7, 7 days) was 1.52 ng/dL and the “Testosterone level in blood” value (G15 Female 250 mg/kg sc 1/day x7, pre) was 1.65 ng/dL. For the same sequence, the “Testosterone level in blood” value (G16 Male 250 mg/kg sc 1/day x7, 4 hr) was 0.11 ng/dL, the “Testosterone level in blood” value (G16 Male 250 mg/kg sc 1/day x7, 8 hr) was 0.03 ng/dL and the “Testosterone level in blood” value (G16 Male 250 mg/kg sc 1/day x7, 2 days) was 0 ng/dL. The “Testosterone level in blood” value (G16 Male 250 mg/kg sc 1/day x7, 3 days) was 0.08 ng/dL, the “Testosterone level in blood” value (G16 Male 250 mg/kg sc 1/day x7, 4 days) was 0.18 ng/dL and the “Testosterone level in blood” value (G16 Male 250 mg/kg sc 1/day x7, 5 days) was 0.09 ng/dL. The “Testosterone level in blood” value (G16 Male 250 mg/kg sc 1/day x7, 6 days) was 0.14 ng/dL, the “Testosterone level in blood” value (G16 Male 250 mg/kg sc 1/day x7, 7 days) was 0.12 ng/dL and the “Testosterone level in blood” value (G16 Male 250 mg/kg sc 1/day x7, pre) was 0.18 ng/dL. For the same sequence, the Testosterone level (female group, after injection of PEP-1) was 0.05 ng/dL, the “Effect on the Testosterone level” value (female rat) was “does not have significant effect” and the Testosterone level (male groups, Day 1, all groups injected with PEP-1) was 6 to 10 ng/dL. The “Testosterone level, PEP-1 versus vehicle” value (male groups, after Day 3) was “no significant difference between PEP-1 and vehicle”.
